Here are results for five compounds from patent US20040142888A1, “Modulators of RabGGT and methods of use thereof” (priority 2002, published 2004).

Test [1] concerns HCT-116 human colon tumor cells. The test is described as follows: Compound-induced apoptosis in HCT-116 human colon tumor cells (microscopy for morphological markers). Type of test: cell-based. The protocol:
HCT-116 human colon tumor cells obtained from the American Type Culture Collection (ATCC) were grown in McCoy's 5A culture medium with 10% heat inactivated FBS, 1× penicillin/streptomycin, and 25 mM HEPES, in an incubator maintained at 37° C. with CO2 at 6-7% and humidity at 95%. Cells were treated with compounds using a dose range from 0.04 μM to 100 μM. After 48 hours they were examined by microscopy for signs of cell rounding, vaccuolation, and nuclear condensation. These are morphological markers associated with apoptosis, and are consistent with results obtained by performing an assay for nucleosomal DNA, or a TdT-mediated dUTP nick end labeling (TUNEL) assay.
The concentrations cited are the minimal concentration required to induce these morphological changes in 50% of the treated cells.

The subject of the next test is C. elegans germline. The test is described as follows: Apoptosis in the C. elegans germline (apoptotic corpses per germline arm), after compound and/or RNAi treatment. Type of test: in vivo. As to conditions: wild-type worms, compound 1.5 mM. As to the method:
The compounds were applied to early larval and adult C. elegans hermaphrodites by mixing a concentrated DMSO solution of the compound with heat-killed OP50 bacteria in a salt solution. The bacteria were then applied to agar plates and worms of the appropriate age seeded onto the plates. Compounds 7A, 7B, 7C, 7D, 7H, 7I and 7J were applied to worms at a final concentration of 1.5 mM. and the resulting visible phenotypes analyzed. The phenotype of apoptosis in C. elegans was quantified as follows: Germ cells in the C. elegans hermaphrodite gonad progress through various stages of differentiation to become mature ova. At the pachytene stage of meiotic prophase, some germ cells undergo programmed cell death (apoptosis) as part of normal development. The apoptotic corpses resulting from this process can be visualized by high-resolution Nomarski optics and are readily distinguishable cells to the trained eye from viable germ cells by their compact, button-like appearance. Necrotic cells, which are rarer, have a less compact appearance. Apoptosis is most reliably distinguished from necrosis, however, by its requirement for the core apoptotic machinery, such as a functional caspase/ced-3 gene. Since C. elegans has symmetrical anterior and posterior gonad structures, referred to as “arms”, apoptosis is scored by visually counting the apoptotic corpses present in a 1-2 day old adult in each germline arm. Normal, untreated worms rarely contain more than 2 corpses per arm. In a treated sample, the number of worms that contain more than 2 corpses provides a very accurate indicator of the apoptotic effect of the treatment. Early larval and adult C. elegans hermaphrodites were treated with compound and the phenotype of apoptosis in the germline arm was quantified as described in Example IV. DNA encoding GGTase alpha/[…].2 (GenBank entry NM-067966) and GGTase beta/B0280.1 (GenBank entry NM 066158) was amplified from a C. elegans genomic DNA template by PCR (Takara LA Taq DNA polymerase) using oligonucleotides containing gene-specific priming sequences that were flanked by sequences encoding the T7 polymerase priming site. The gene-specific priming sequences targeted the first 5 exons of B0280.1 (product size 2 kiloBases) and the first four exons of […].2 (product size 1 kiloBases). The PCR products were analyzed by gel electrophoresis to confirm that the correct product size was obtained. RNA was transcribed from the PCR product using the MEGAscript High Yield Transcription Kit (Ambion) according to manufacturer's instructions. Directly after transcription, the RNA was annealed by heating to 68° C. for 20 minutes. The double stranded RNA (dsRNA) was checked for product quality by gel electrophoresis. The dsRNA was then ethanol-precipitated, washed once with 100% ethanol and twice with 70% ethanol and the pellet was allowed to air dry for 30 minutes. The dsRNA was re-suspended in 1× IM buffer (20 mM KPO4, 3 mM potassium citrate, 2% PEG 6000) in volume equal to the original in vitro transcription reaction, and stored at -20° C. For RNAi treatment of worms, wild type animals at the L2/L3 stage of development were collected in M9 buffer at 50 animals/μl (M9 is 0.044 M KH2PO4, 0.085 M Na2HPO4, 0.18 M NaCl and 1 mM MgSO4). 1 μl of this nematode suspension was added to 3 μl of dsRNA and incubated for 24 hours in a sealed 96 well plate at 20° C. in a humidified chamber. Animals were allowed to develop to adulthood before compound treatment and/or assay of germline apoptosis as described in Example IV. Early larval and adult C. elegans hermaphrodites were treated with compound as described in Example IV. RNAi preparation and treatment was performed as described in Example VI. The phenotype of apoptosis in the germline arm was quantified as described in Example IV. Early larval and adult C. elegans hermaphrodites were treated with compound as described in Example IV. RNAi preparation and treatment was performed as described in Example VI. […]

Setting [2] is: HCT-116, 48 h, HCT116 cells, 48 hours, minimal concentration inducing apoptotic morphological changes in 50% of treated cells, read-out: 50% APOPTOTIC
[3] abbreviates: HCT-116, minimum concentration required to achieve apoptosis of 50% of the HCT116 cells (Table 7), read-out: HCT116 50% apoptosis.
[4] abbreviates: HCT-116, minimum concentration required to achieve apoptosis of 50% of the HCT116 cells (Table 8), read-out: HCT116 50% apoptosis.

Where two headings read alike, the source gives them in different places.

Turning to `COc1ccc(S(=O)(=O)N2Cc3cc(C#N)ccc3N(Cc3cnc[nH]3)C[C@H]2Cc2ccccc2)cc1` [Compound 7A], the EC50 in test [1] (setting [2]) stood at 3700 nM. Also, in test [1] (setting [3]), the EC50 turned out to be 3300 nM. For the same compound, in test [1] (setting [4]), the EC50 is 3300 nM. In the test with C. elegans germline, the “% arms with >2 corpses” value is 36%; the “Corpses/germline arm, mean” value turned out to be 2.0; the “Frequency: germline arms with 0 apoptotic corpses” value was 1; the “Frequency: germline arms with 1 apoptotic corpse” value is 4. Also, in the test with C. elegans germline, the “Frequency: germline arms with 2 apoptotic corpses” value is recorded as 2, the “Frequency: germline arms with 3 apoptotic corpses” value came to 3, the “Frequency: germline arms with 4 apoptotic corpses” value turned out to be 0 and the “Frequency: germline arms with >4 apoptotic corpses” value is on record as 1. In addition, the “effect on mean number of apoptotic corpses in the germline” value (“effect on mean number” below) in the test on C. elegans germline is listed as “increasing the mean number of apoptotic corpses in the germline”.

For `N#Cc1ccc2c(c1)CN(S(=O)(=O)N1CCCCC1)[C@H](Cc1ccccc1)CN2Cc1cnc[nH]1` [Compound 7B], the EC50 in test [1] (setting [2]) turned out to be 370 nM. Moreover, in test [1] (setting [3]), the EC50 amounted to 370 nM. In addition, the EC50 in test [1] (setting [4]) is 370 nM. For the same compound, in the test with C. elegans germline, the “% arms with >2 corpses” value came out at 92%; the “Corpses/germline arm, mean” value turned out to be 6.9; the “Frequency: germline arms with 0 apoptotic corpses” value is reported as 0; the “Frequency: germline arms with 1 apoptotic corpse” value is reported as 0. In addition, in the test with C. elegans germline, the “Frequency: germline arms with 2 apoptotic corpses” value came out at 1, the “Frequency: germline arms with 3 apoptotic corpses” value is recorded as 1, the “Frequency: germline arms with 4 apoptotic corpses” value came to 0 and the “Frequency: germline arms with >4 apoptotic corpses” value is given as 10.

Regarding `CCCS(=O)(=O)N1Cc2cc(C#N)ccc2N(Cc2cnc[nH]2)C[C@H]1Cc1ccccc1` [Compound 7H], in test [1] (setting [2]), the EC50 was 370 nM. The EC50 in test [1] (setting [3]) was found to be 370 nM. Moreover, the EC50 in test [1] (setting [4]) was 370 nM. For the same compound, in the test on C. elegans germline, the “% arms with >2 corpses” value came out at 29%; the “Corpses/germline arm, mean” value is 1.6; the “Frequency: germline arms with 0 apoptotic corpses” value is 5; the “Frequency: germline arms with 1 apoptotic corpse” value is on record as 4. In the test with C. elegans germline, the “Frequency: germline arms with 3 apoptotic corpses” value is 3, the “Frequency: germline arms with 4 apoptotic corpses” value is recorded as 2, the “Frequency: germline arms with >4 apoptotic corpses” value is listed as 0 and the “effect on mean number” value is listed as “increasing the mean number of apoptotic corpses in the germline”.

As to `COc1ccc(S(=O)(=O)N2Cc3cc(C#N)ccc3N(Cc3cncn3C)C[C@H]2Cc2ccccc2)cc1` [Compound 7I], the EC50 in test [1] (setting [2]) came to 40 nM. For the same compound, the EC50 in test [1] (HCT-116, 48 h, HCT-116 cells, 48 hours, read-out: minimum effective concentration (apoptosis in 50% of cells)) stood at 40 nM. Besides, the EC50 in test [1] (setting [3]) is 40 nM. Further, in test [1] (setting [4]), the EC50 was found to be 40 nM. For the same compound, in the test with C. elegans germline, the “% arms with >2 corpses” value was 33%; the “Corpses/germline arm, mean” value is listed as 2.3; the “Frequency: germline arms with 0 apoptotic corpses” value turned out to be 1; the “Frequency: germline arms with 1 apoptotic corpse” value stood at 3. In the test on C. elegans germline, the “Frequency: germline arms with 2 apoptotic corpses” value was 3, the “Frequency: germline arms with 3 apoptotic corpses” value was determined as 1, the “Frequency: germline arms with 4 apoptotic corpses” value came to 2 and the “Frequency: germline arms with >4 apoptotic corpses” value is listed as 1. Besides, the “effect on mean number” value in the test on C. elegans germline is “increasing the mean number of apoptotic corpses in the germline”.

Regarding `Cn1cncc1CN1C[C@@H](Cc2ccccc2)N(S(=O)(=O)c2cccs2)Cc2cc(C#N)ccc21` [Compound 7J], in test [1] (setting [2]), the EC50 turned out to be 2500 nM. Also, the EC50 in test [1] (setting [3]) is 2500 nM. In addition, the EC50 in test [1] (setting [4]) came to 2500 nM. Besides, in the test with C. elegans germline, the “% arms with >2 corpses” value amounted to 59%; the “Corpses/germline arm, mean” value is 2.8; the “Frequency: germline arms with 0 apoptotic corpses” value is 3; the “Frequency: germline arms with 1 apoptotic corpse” value stood at 4. Further, in the test on C. elegans germline, the “Frequency: germline arms with 2 apoptotic corpses” value is on record as 1, the “Frequency: germline arms with 3 apoptotic corpses” value was determined as 4, the “Frequency: germline arms with 4 apoptotic corpses” value came out at 4 and the “Frequency: germline arms with >4 apoptotic corpses” value is 3. Also, the “effect on mean number” value in the test on C. elegans germline is reported as “increasing the mean number of apoptotic corpses in the germline”.
